Read-outs that look alike come from different tables or passages of the source.
What was measured:
[1] = tested on: HMEC (human skin microvascular endothelial cell); assay: Cell proliferation inhibition test against normal cells HMEC; assay type: cell-based; conditions: for IC50: Homo sapiens, HMEC, 72 h, read-out: IC50 HMEC; for ratio HMEC: IC50 HMEC relative to IC50 NUGC4
Method: [Worded in the source for another cell line; this cell line is reported under the same test.] (§1) The thus-prepared test compound solution was added to each well of the NUGC4 cell culture plate at 0.1 mL/well, and the plate was incubated in an incubator under 5% CO2 gas atmosphere at 37° C. for 3 days. […] Thereafter, the plate was washed with tap water and dried. Then, aqueous 0.05% Crystal Violet/20% methanol solution (product of Wako Pure Chemical Industries Ltd.) was added to each well at 100 μL/well, and the plate was left to stand at room temperature for 20 minutes, whereby cells were stained. Thereafter, the plate was washed with tap water and dried. To each well, 0.05 M NaH2PO4/ethanol (1/1=v/v) (100 μL) was added, to thereby extract Crystal Violet. The absorbance of the extracted Crystal Violet was measured at 540 nm using a microplate reader, and the absorbance was employed as an index for living cell count. […] Percent inhibition (%)=(C−T)/C×100 • T: Absorbance of well to which a test compound was added • C: Absorbance of well to which no test compound was added

[2] = tested on: NUGC4 cells; assay: Cell-proliferation inhibitory assay against NUGC4 cells (Crystal Violet); assay type: cell-based; conditions: Homo sapiens, NUGC-4, 72 h; NUGC4, cancer, c-Met status (+), 3 days
Method: Cell-Proliferation Inhibitory Assay Against NUGC4 Cells (Human Gastric Cancer Cell Strain in Which c-Met is Over-Expressed and Highly Activated), In Vitro Test
NUGC4 cell suspension (in a 10% FBS-containing RPMI 1640 medium (product of Wako Pure Chemical Industries Ltd.) or a FBS-containing DMEM medium (product of Nacalai Tesque, Inc.)) was inoculated to each well of a 96-well (flat-bottom) microplate in an amount of 2×10^3 cells (0.1 mL), and the plate was incubated in an incubator under 5% CO2 gas atmosphere at 37° C. for one day. Each of the compounds of the present invention and comparative compound 1 was dissolved in dimethyl sulfoxide to a concentration of 30 mM. The solution was diluted with 10% FBS-containing RPMI 1640 or DMEM medium, to a final test compound concentration of 60, 20, 6, 2, 0.6, or 0.2 μM. The thus-prepared test compound solution was added to each well of the NUGC4 cell culture plate at 0.1 mL/well, and the plate was incubated in an incubator under 5% CO2 gas atmosphere at 37° C. for 3 days. After culturing, 25% aqueous glutaraldehyde solution (product of Nacalai Tesque, Inc.) was added to each well at 20 μL, and the plate was left to stand at room temperature for 20 minutes, whereby cells were fixed. Thereafter, the plate was washed with tap water and dried. Then, aqueous 0.05% Crystal Violet/20% methanol solution (product of Wako Pure Chemical Industries Ltd.) was added to each well at 100 μL/well, and the plate was left to stand at room temperature for 20 minutes, whereby cells were stained. Thereafter, the plate was washed with tap water and dried. To each well, 0.05 M NaH2PO4/ethanol (1/1=v/v) (100 μL) was added, to thereby extract Crystal Violet. The absorbance of the extracted Crystal Violet was measured at 540 nm using a microplate reader, and the absorbance was employed as an index for living cell count. Percent inhibition was calculated by the following equation, and the 50% inhibition test compound concentration (IC50 (μM)) was calculated. Percent inhibition (%)=(C−T)/C×100 • T: Absorbance of well to which a test compound was added • C: Absorbance of well to which no test compound was added

[3] = tested on: HAOSMC (human aortic smooth muscle cell); assay: Cell proliferation inhibition test against normal cells HAOSMC; assay type: cell-based; conditions: for IC50: Homo sapiens, 72 h, read-out: IC50 HAOSMC; for ratio HAOSMC: IC50 HAOSMC relative to IC50 NUGC4
Method: [Worded in the source for another cell line; this cell line is reported under the same test.] as §1

[4] = Dose determination study (body weight change, maximum tolerated dose); assay type: in vivo; conditions: nude mice, peroral
Method: […]. The maximum tolerated dose was calculated based on the change in body weight of the mice.
During the administration period, percent body weight change of mice (BWC %) was calculated. […] Thus, the half value of the toxicity expression dose was decided as a maximum tolerated dose.
BWC of mice was calculated by the following equation, and the change in mean BWC of each group during the administration period is shown in FIG. 1. BWC(%)=([(body weight of mouse on the day of weight measurement)−(body weight of mouse at grouping)]/(body weight of mouse at grouping))×100

[5] = tested on: HCT-116; assay: Cell proliferation inhibition test against c-Met low expressing tumor cells (HCT-116); assay type: cell-based; conditions: for IC50: Homo sapiens; for ratio HCT-116: IC50 HCT-116 relative to IC50 NUGC4
[6] = biological target: c-Met (Homo sapiens, UniProt P08581); assay: c-Met inhibitory assay using AlphaScreen (Method A); assay type: biochemical; parameters: purchased Carna bio Co., Ltd 08-051; conditions: ATP 20 μM
Method: Inhibitory activity of compounds against c-Met kinase was determined through the following procedures. Method A) c-Met inhibitory assay using AlphaScreen™
A biotinylated peptide including a phosphorylated site of Pyk2 (Tyr402), which is reported as a bio-substrate in Clin. Cancer Res. vol. […] The mixture was allowed to react at room temperature for 20 minutes. EDTA was added to the reaction mixture to a final concentration of 50 mM, to thereby terminate reaction. […] The reaction was done for one hour at room temperature. Thereafter, the fluorescence intensity from the reaction mixture was measured using a multi-label counter (EnVision™, Perkin Elmer).

[7] = HCT-116, 72 h, read-out: IC50 HCT-116
[8] = normal, c-Met status (−), 3 days
[9] = HAOSMC, normal, c-Met status (−), 3 days
[10] = 72 h, HCT-116, cancer, c-Met status (−), 3 days, read-out: IC50 HCT-116

c-Met, sequence (P08581 956-1390 limits assumed): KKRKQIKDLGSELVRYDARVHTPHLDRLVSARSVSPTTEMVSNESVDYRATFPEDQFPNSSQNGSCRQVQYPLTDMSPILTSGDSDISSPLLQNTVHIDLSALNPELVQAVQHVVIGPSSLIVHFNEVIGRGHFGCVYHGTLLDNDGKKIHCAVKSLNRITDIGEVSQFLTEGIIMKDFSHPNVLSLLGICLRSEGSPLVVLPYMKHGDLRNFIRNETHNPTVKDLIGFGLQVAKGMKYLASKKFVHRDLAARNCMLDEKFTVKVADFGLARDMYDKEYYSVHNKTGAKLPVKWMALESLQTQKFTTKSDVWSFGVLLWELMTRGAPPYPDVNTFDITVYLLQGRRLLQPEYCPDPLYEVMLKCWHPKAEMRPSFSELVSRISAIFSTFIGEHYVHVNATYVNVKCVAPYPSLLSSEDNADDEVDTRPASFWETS

IC50 [6]	IC50 [5, 10]	SMILES	IC50 [1]	IC50 [2]	IC50 [3]	MTD at 14 days ([4]; mouse, in vivo, oral, half value of the toxicity expression dose)	toxicity expression dose ([4]; 14 days, dose with ≧10% reduction in mean BWC)	body weight change ([4]; once a day, 14 days, 100 mg/kg)	decrease in BWC ([4]; once a day, 14 days, 200 mg/kg)	IC50 [5, 7]	IC50 ([5]; HCT-116, read-out: IC50 to c-Met low expressing and normal cell strains)	IC50 [1, 8]	ratio HMEC [1]	IC50 [3, 9]	ratio HAOSMC [3]	ratio HCT-116 [5]
		COc1cc2nccc(Oc3ccc(NC(=S)NC(=O)Cc4ccccc4)cc3F)c2cc1OC [Comp. Ex. 1, reference compound]	15 µM	0.2 µM	24 µM	100 mg/kg	200 mg/kg	no decrease in body weight was observed	> 10%	17 µM	15 to 24 µM					
0.338 µM	> 30 µM	COc1cc2nccc(Oc3ccc(NC(=S)NC(=O)Cc4ccc(F)cc4)cc3F)c2cc1C(=O)NC1CCCCNC1=O (stereo not shown) [Example 19, 4-(2-Fluoro-4-(3-(2-(4-fluorophenyl)acetyl)thioureido)phenoxy)-7-methoxy-N-(2-oxoazepan-3-yl)quinoline-6-carboxamide]		0.01 µM								18 µM	3000	> 30 µM	>3000	>3000
0.118 µM	> 30 µM	COc1cc2nccc(Oc3ccc(NC(=S)NC(=O)Cc4ccccc4)cc3F)c2cc1C(=O)NCC(=O)N1CCOCC1 [Example 21, 4-(2-Fluoro-4-(3-(2-phenylacetyl)thioureido)phenoxy)-7-methoxy-N-(2-morpholino-2-oxoethyl)quinoline-6-carboxamide]		0.01 µM								5 µM	3000	> 30 µM	>3000	>3000
0.25 µM	> 30 µM	COc1cc2nccc(Oc3ccc(NC(=S)NC(=O)Cc4ccccc4)cc3F)c2cc1C(=O)NCC(=O)N(C)C [Example 22, N-(2-(Dimethylamino)-2-oxoethyl)-4-(2-fluoro-4-(3-(2-phenylacetyl)thioureido)phenoxy)-7-methoxyquinoline-6-carboxamide]		0.01 µM								> 30 µM	>3000	> 30 µM	>3000	>3000
0.059 µM	11 µM	COc1cc2nccc(Oc3ccc(NC(=S)NC(=O)Cc4ccccc4)cc3F)c2cc1C(=O)NCCS(C)(=O)=O [Example 27, 4-(2-Fluoro-4-(3-(2-phenylacetyl)thioureido)phenoxy)-7-methoxy-N-(2-(methylsulfonyl)ethyl)quinoline-6-carboxamide]		0.02 µM								14 µM	1894	> 30 µM	>1893	714

SMILES	IC50 [6]	IC50 [5, 10]	IC50 [1]	IC50 [2]	IC50 [3]	MTD at 14 days ([4]; mouse, in vivo, oral, half value of the toxicity expression dose)	toxicity expression dose ([4]; 14 days, dose with ≧10% reduction in mean BWC)	body weight change ([4]; once a day, 14 days, 100 mg/kg)	decrease in BWC ([4]; once a day, 14 days, 200 mg/kg)	IC50 [5, 7]	IC50 ([5]; HCT-116, read-out: IC50 to c-Met low expressing and normal cell strains)	IC50 [1, 8]	ratio HMEC [1]	IC50 [3, 9]	ratio HAOSMC [3]	ratio HCT-116 [5]
COc1cc2nccc(Oc3ccc(NC(=S)NC(=O)Cc4ccccc4)cc3F)c2cc1C(=O)NCC(C)(C)O [Example 24, 4-(2-Fluoro-4-(3-(2-phenylacetyl)thioureido)phenoxy)-N-(2-hydroxy-2-methylpropyl)-7-methoxyquinoline-6-carboxamide]	0.033 µM		16 µM	0.02 µM	> 30 µM					23 µM			1552		>1552	1181
